Structures are written as SMILES.

One test has as its target D2 (Homo sapiens, UniProt P14416). To be noted: D2 Antag; cited from earlier work.
A further test concerns the target 5HT2A (Homo sapiens, UniProt P28223). The note with it: 5HT2A Antagonist; cited from earlier work.
The subject of test [1] is hippocampal subgranular neurogenic niche. Kind of test: Short-term (4 days) in vivo activation of the hippocampal subgranular neurogenic niche (BrdU). On the set-up: species or system C57BL/6 mice. To be noted: antagonist 0.2 μg/animal with DMT 0.1 μg/animal. The method, then: Adult male C57BL/6 mice (obtained from Charles River Labs) were injected in the lateral ventricle (coordinates: from bregma, posterior −1 mm, lateral +1.3 mm, ventral +2 mm, according to the atlas of Paxinos and Franklin (Paxinos G, Franklin KBJ. The Mouse Brain in Stereotaxic Coordinates. 4. San Diego: Academic Press; 2012)), using a stereotaxic apparatus (Kopf Instruments, CA) with DMT (0.1 μg/animal), alone or in combination with the selective Sigma-1 BD1063 (BD, 0.2 μg/animal, Sigma, catalog number SML0276), the mixed 5-HT2A/1A receptor antagonist methiothepin (Met, 0.2 μg/animal, Sigma catalog number M149), or the selective 5-HT1A receptor antagonist WAY100635 (WAY, 0.2 μg/animal, ABCAM catalog number ab120550). Prior to the injection, mice were anesthetized by intraperitoneal injection of ketamine (60 mg/kg) and medetomidine (0.125 mg/kg). […] The boundaries of these nervous system regions were determined with reference to internal anatomic landmarks (Paxinos G, Franklin KBJ. The Mouse Brain in Stereotaxic Coordinates. 4. San Diego: Academic Press; 2012). For DG area selection, images were analyzed using computer-assisted image analysis software (Soft Imaging System Corporation, Lakewood, Colo., http://www.soft-imaging.com). Positive cells, which intersected the uppermost focal plane (exclusion plane) and the lateral exclusion boundaries of the counting frames, were not counted. […]

For test [2], the system named is subgranular zone of the hippocampus. Description: Long-term (21 days) in vivo neurogenesis in the subgranular zone of the hippocampus (BrdU/NeuN, BrdU/DCX). More on the design: species or system C57BL/6 mice. The note with it: antagonist 0.2 μg/animal with DMT 0.1 μg/animal, every other day for 3 weeks. The procedure:
Adult male C57BL/6 mice (obtained from Charles River Labs, Barcelona, Spain) were injected every other day for 3 weeks with DMT (0.1 μg/animal), alone or in combination with the selective Sigma-1 BD1063 antagonist (BD, 0.2 μg/animal, Sigma, Catalog number SML0276), the mixed 5-HT2A/1A receptor antagonist methiothepin (Met, 0.2 μg/animal, Sigma, Catalog number M149), or the selective 5-HT1A receptor antagonist WAY100635 (WAY, 0.2 μg/animal, ABCAM catalog number ab120550). On day 1 of treatment, animals were intraperitoneally injected with the proliferation marker 5-bromo-2-deoxyuridine (BrdU, 50 mg/kg, Sigma, Catalog number B5002) and sacrificed on day 21. Following anesthesia, the animals were perfused transcardially with 4% paraformaldehyde, and the brains obtained and post-fixed in the same solution at 4-8° C. overnight. They were subsequently cryoprotected, frozen, and finally cut into 30 μm coronal sections in a cryostat. Free-floating sections were immunostained using immunofluorescence analysis. For BrdU detection, samples were first incubated with 2 M HCl for 30 minutes at 37° C. before blocking 1 hour in PBS containing 5% normal serum, 0.1 M lysine, and 0.1% Triton X-100. Sections were then incubated with anti-BrdU mouse monoclonal antibody (DAKO, Barcelona, Spain, Catalog number M0744) combined with a neuronal marker, anti-neuN rabbit antibody (Abcam, Cambridge, UK. Catalog number ABN78) or an anti-double courtin (DCX) goat antibody (Santa Cruz Biotech. USA) at 4° C. overnight, washed three times and incubated with Alexa Fluor-488 goat anti-mouse and Alexa 647-goat anti-rabbit or -horse anti-goat secondary antibodies (Molecular Probes, Madrid, Spain), respectively, for 1 hour at room temperature. After rinses, sections were mounted with Vectashield.

D2, sequence (P14416 whole entry): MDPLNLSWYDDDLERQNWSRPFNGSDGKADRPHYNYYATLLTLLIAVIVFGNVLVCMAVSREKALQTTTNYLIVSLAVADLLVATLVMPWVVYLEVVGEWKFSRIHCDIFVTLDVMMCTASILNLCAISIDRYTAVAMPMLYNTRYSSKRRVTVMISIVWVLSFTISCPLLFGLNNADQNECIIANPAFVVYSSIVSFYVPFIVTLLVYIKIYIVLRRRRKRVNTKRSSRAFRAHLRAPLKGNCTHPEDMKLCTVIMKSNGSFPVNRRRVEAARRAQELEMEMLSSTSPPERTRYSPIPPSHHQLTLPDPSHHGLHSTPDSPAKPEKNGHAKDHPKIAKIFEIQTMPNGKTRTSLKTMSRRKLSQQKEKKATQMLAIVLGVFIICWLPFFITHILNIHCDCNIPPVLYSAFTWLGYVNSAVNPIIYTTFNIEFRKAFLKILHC
5HT2A, sequence (P28223 whole entry): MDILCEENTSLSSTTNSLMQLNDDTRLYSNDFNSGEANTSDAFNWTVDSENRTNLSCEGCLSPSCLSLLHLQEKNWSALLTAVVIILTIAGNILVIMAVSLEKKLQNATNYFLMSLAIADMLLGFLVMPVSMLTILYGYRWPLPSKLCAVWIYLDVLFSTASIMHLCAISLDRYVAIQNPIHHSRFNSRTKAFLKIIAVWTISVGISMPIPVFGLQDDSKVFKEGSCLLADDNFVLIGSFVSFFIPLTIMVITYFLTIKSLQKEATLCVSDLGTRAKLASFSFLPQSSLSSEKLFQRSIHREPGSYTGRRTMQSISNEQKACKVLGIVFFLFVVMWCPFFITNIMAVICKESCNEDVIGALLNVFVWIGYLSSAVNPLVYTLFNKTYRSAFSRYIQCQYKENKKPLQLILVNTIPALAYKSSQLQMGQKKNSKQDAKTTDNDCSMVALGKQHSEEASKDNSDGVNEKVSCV

The Ki is the dissociation constant of the complex between target and ligand, obtained from inhibition or displacement. Regarding `CCNC(=O)N1CCN(CCCC(c2ccc(F)cc2)c2ccc(F)cc2)CC1` [Amperozide], the Ki at D2 is 140 nM; on 5HT2A, 12 nM.
Consider `CN1CCN(CCc2ccc(Cl)c(Cl)c2)CC1` [BD1063], for which, in test [1], the “blockade of DMT stimulatory effects in vivo” value is listed as “completely blocked”. Further, in test [2], the “blockade of the DMT neurogenic effect in vivo” value is on record as “blocked”.

(Values after US11723894B2, “Combination product for the treatment of neurological and/or psychiatric disorders” (Consejo Superior de Investigaciones Cientificas (CSIC), priority 2017, dated 2023).)
